Where a name gives a salt, the structure may show the parent alone. Read-outs that look alike come from different tables or passages of the source.
Key:
[1] = cited from earlier work
[2] = in vitro skin permeation through the skin of a nude mouse
From the text: All employed solutions are saturated.
The given values are average values which were obtained with saturated solutions.
Saturated solutions were used to achieve the respective maximal thermodynamic activities.

[3] = healthy test persons, single dose 0.15 mg/kg i.v., cited from earlier work
[4] = humans; cited from earlier work
nausea and emesis = settings: cited from earlier work
[5] = after oral administration; cited from earlier work
[6] = diffusion cell, cited from earlier work

Cc1nccn1CC1CCc2c(c3ccccc3n2C)C1=O (centres unmarked) [ondansetron hydrochloride]
time until peak concentrations are present in the plasma ([1]; after oral administration): Approximately 1 hour | average elimination half-life ([1]; healthy test persons): 3.5 h | average elimination half-life ([1]; older patients): approximately 7.9 hours | permeation compared with the free base ([2]; in combination with the described solvent mixture): permeates better than ondansetron in the form of the free, non-ionic base | amount permeated relative to a saturated aqueous solution ([2]; mixture of ethanol, tea tree oil and water vs saturated aqueous solution, after 24 hours): approximately 12 times | permeation through the skin (FIG. 2) ([2]; saturated aqueous solution): the results do not differ from those which were obtained using pure tea tree oil | permeation through the skin (FIG. 1) ([2]; saturated solution in ethanol): best permeation | permeation through the skin (FIG. 1) ([2]; saturated solution in tea tree oil alone): insufficient permeation | amount permeated ([2]; solution in a mixture of ethanol, tea tree oil and water, after 24 hours): approximately 1.2 mg per cm^2 | flow of the active agent (FIG. 2) ([2]; solution in a mixture of ethanol, tea tree oil and water, first 4 to 5 hours): extremely strong increase

Cc1nccn1CC1CCc2c(c3ccccc3n2C)C1=O (racemic) [ondansetron, (±)-1,2,3,9-tetrahydro-9-methy-3-[(2-methyl-1H-imidazole-1-yl)methyl]-4H-carbazol-4-one monohydrochloride]
average half-life ([3]; age group 19-40 years): 3.5 h | peak concentration in plasma ([3]; age group 19-40 years): 102 ng/mL | plasma clearance ([3]; age group 19-40 years): 6.33 mL/min/kg | average half-life ([3]; age group 61-74 years): 4.7 h | plasma clearance ([3]; age group 61-74 years): 5.33 mL/min/kg | average half-life ([3]; age group ≧75 years): 5.5 h | plasma clearance ([3]; age group ≧75 years): 4.33 mL/min/kg | part of a radioactively marked dose found in urine [4]: approximately 5% | treatment of nausea and emesis (nausea and emesis; patients treated with anti-tumor drugs such as cisplatin derivatives): reliable in treating nausea and emesis | side effects (nausea and emesis; patients): headaches, diarrhea, and temporary abnormalities in liver function tests | bioavailability [5]: approximately 50%

Cc1cccc(CN2CCN(C)C[C@@H](NC(=O)c3n[nH]c4ccccc34)C2)c1.Cl.Cl [(R)-(−)-N-(1-methyl-4-(3-methylbenzyl)hexahydro-1H-1,4-diazepin-6-yl)-1H-indazole-3-carboxamided.2HCl]
flow of the active agent through the human epidermis ([6]; adhesive matrix of styrene-butadiene copolymer used as a comparison): 0.8 μg/cm^2/h | flow of the active agent through the human epidermis ([6]; two-phase matrix with 4 % active agent, calcium silicate, dimethyl siloxane adhesive (WO 9407468)): 17.1 μg/cm^2/h

From US6440453B1, “Transdermal systems for release of 5-HT3 receptor antagonists and their use in anti-emetic treatment” (Novosis Pharma AG, priority 1999, dated 2002)
